The text below walks through data of publication PMC3510490, “Structure of Actin-related protein 8 and its contribution to nucleosome binding” (Nucleic Acids Research, 2012).

In assay [1] the target is T1, human Arp8 (Homo sapiens, UniProt Q9H981).
T1 construct: gene ACTR8; monomer
The assay can be described thus: […] phosphate release, TLC. As to conditions: 100 µM ATP with 5 nM [γ-32P]ATP (labelled compound), 2 mM MgCl2, pH 7.9, 30 °C; construct (full-length or Δ1-33) not stated. The format is biochemical.

The target of assay [2] is T2, Saccharomyces cerevisiae INO80 sub-complex I (Arp8–Arp4–actin-HSA) (Saccharomyces cerevisiae, UniProt P60010+Q12386).
T2 construct: co-expressed Arp4, Arp8, actin and His6-Ino80(462-685) in HighFive insect cells; monomeric complex; with Actin-related protein 4; Chromatin-remodeling ATPase INO80
Briefly: […] phosphate release, TLC. Type of assay: biochemical. As to conditions: 100 µM ATP with 5 nM [γ-32P]ATP (labelled compound), 2 mM MgCl2, pH 7.9, 30 °C; active subunit not resolved (Arp8 and/or actin).

The target in assay [3] is T3, yeast Arp8 (Saccharomyces cerevisiae, UniProt Q12386).
T3 construct: recombinant from HighFive insect cells, prepared as described previously; monomer
T3 sequence (Q12386 1-881): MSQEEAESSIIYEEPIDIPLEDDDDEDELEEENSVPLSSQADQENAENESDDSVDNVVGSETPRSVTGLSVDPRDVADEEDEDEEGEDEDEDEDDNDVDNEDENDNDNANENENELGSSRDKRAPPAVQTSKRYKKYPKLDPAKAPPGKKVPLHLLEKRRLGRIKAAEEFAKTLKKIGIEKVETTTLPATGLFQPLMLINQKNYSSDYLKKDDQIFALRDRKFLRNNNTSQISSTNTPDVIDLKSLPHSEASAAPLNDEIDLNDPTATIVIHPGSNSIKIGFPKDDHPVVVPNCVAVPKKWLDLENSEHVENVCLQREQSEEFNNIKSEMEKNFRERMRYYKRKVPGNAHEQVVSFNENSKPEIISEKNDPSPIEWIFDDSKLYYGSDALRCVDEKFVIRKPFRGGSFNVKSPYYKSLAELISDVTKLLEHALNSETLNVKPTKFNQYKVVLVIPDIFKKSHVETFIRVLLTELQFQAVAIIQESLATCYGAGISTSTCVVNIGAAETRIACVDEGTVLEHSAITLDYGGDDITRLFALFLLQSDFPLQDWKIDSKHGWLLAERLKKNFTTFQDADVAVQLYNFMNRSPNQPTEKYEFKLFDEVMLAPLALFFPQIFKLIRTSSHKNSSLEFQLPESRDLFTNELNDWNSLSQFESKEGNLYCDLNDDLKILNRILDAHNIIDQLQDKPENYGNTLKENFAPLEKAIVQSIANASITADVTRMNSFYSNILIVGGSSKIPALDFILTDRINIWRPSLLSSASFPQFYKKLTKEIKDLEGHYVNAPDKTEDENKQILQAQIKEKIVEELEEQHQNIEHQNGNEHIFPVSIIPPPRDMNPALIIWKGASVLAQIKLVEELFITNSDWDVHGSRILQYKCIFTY
Briefly: […] phosphate release, TLC. As to conditions: 100 µM ATP with 5 nM [γ-32P]ATP (labelled compound), 2 mM MgCl2, pH 7.9, 30 °C. Type of assay: biochemical.

Assay [4] deals with T4, Homo sapiens Arp8 (Δ1–33) (Homo sapiens, UniProt Q9H981).
T4 construct: gene ACTR8; N-terminal 8xHis tag cleaved by PreScission protease; E. coli BL21(DE3); monomer
T4 sequence (Q9H981 34-624, stated change not applied): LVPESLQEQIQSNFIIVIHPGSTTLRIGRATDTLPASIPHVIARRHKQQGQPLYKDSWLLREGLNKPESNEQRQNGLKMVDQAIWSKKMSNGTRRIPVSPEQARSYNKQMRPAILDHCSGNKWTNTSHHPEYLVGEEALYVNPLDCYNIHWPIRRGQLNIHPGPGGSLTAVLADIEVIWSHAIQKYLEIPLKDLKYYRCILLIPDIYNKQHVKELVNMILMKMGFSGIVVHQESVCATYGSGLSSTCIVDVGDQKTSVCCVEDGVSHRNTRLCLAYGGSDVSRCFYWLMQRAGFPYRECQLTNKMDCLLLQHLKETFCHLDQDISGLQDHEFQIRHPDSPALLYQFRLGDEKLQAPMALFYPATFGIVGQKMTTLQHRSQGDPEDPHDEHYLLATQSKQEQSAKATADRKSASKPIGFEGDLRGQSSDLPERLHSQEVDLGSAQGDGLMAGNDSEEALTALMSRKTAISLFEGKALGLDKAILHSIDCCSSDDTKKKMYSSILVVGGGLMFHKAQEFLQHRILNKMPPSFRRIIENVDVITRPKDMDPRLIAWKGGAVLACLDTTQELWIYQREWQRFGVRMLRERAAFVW
The assay can be described thus: X-ray crystal structure, […] Å. The conditions noted are these: ATP co-purified from expression host, not added; one metal ion (likely Mg2+); nucleotide-binding cleft; pH 6.1.

T1 sequence (Q9H981 whole entry): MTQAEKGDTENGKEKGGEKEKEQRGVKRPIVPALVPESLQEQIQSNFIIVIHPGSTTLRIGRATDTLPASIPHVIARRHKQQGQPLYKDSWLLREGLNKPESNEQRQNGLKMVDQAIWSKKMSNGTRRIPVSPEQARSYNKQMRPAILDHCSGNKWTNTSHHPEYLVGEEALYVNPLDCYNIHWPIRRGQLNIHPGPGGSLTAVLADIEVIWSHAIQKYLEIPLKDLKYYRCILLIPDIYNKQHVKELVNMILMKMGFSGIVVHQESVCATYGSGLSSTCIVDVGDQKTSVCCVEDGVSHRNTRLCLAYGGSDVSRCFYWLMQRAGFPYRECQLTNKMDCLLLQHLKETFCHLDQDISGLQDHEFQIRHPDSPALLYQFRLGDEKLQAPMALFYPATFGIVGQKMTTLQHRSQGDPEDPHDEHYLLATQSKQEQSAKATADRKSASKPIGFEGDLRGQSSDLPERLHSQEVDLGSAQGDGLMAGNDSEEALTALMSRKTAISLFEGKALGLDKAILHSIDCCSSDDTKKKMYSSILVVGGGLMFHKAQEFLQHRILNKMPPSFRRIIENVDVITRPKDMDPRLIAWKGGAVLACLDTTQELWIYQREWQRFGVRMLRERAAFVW

With `Nc1ncnc2c1ncn2[C@@H]1O[C@H](COP(=O)(O)OP(=O)(O)OP(=O)(O)O)[C@@H](O)[C@H]1O` [ATP], the “low basal ATPase activity” value in assay [1] was “yeast and human Arp8 possess a low basal ATPase activity”; in assay [2], “sub-complex I (Arp8–Arp4–actin-HSA) also shows a low basal ATPase activity”; in assay [3], “yeast and human Arp8 possess a low basal ATPase activity”. In addition, the “X-ray crystal structure, 2.6 Å” value in assay [4] is “Electron density in the nucleotide-binding cleft of actin could clearly be assigned to ATP”.
